Source: the supplement of paper PMC11208160

Experiment: recombinant UMI read abundance after kanamycin selection (control-corrected) (log10(CPM+1)); higher = more efficient recombination; extreme values may be limits of the assay; sequences stand for … in AGTGCAGAGAAAATCGGCCAGTTTTCTCTGCCTGCAGTCCGCATGCCGTGGGACCCCTTGGGTTCTAACCTGTTGCCTAGATTTATGCAGCGGACTGCCTTTCTCCCAAAGTGATAAACCGG…AGGTTGGTTTCACT; site = the 11-nt donor
Procedure: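 Pooled E. coli donor-specificity screen for the IS621 bridge recombinase. Each library member carries a reprogrammed 11-nt donor and a full-length LE bridge RNA expressed in cis from the natural promoter, with a paired donor-binding loop (8-nt LDG + 4-nt RDG) and a target-binding loop fixed to T5. It is co-electroporated with a T5 target plasmid; recombinase is induced with 0.07 mM IPTG and recombinants are selected on kanamycin. UMIs are counted as CPM, averaged over two biological replicates and corrected by the unselected control. Molecule = full bridge RNA written as DNA, built from the T5 scaffold: LDG = donor specificity nt 1-8, RDG = reverse complement of nt 8-11.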
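Also: IS621 bridge recombinase in Escherichia coli cells against a fixed T5 target plasmid.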

| Sequence | recombinant UMI read abundance (log10) |
| --- | --- |
| ACGAGTGCATGGACCGGTTTTCCCGGTAATCCGTATTTGGT (site ACCAGTGCTAC) | 0.837 |
| ACGAGTGCATGGACCGGTTTTCCCGGTAATCCGTATTTGGT (site ACGAGTGCTAC) | 2.31 |
| ACGAGTGCATGGACCGGTTTTCCCGGTAATCCGTATTTGGT (site ACTAGTGCTAC) | 1.22 |
| ACGCAATCATGGACCGGTTTTCCCGGTAATCCGTATTTGAT (site ACGCAATCTAT) | 2.55 |
| ACGCACGCATGGACCGGTTTTCCCGGTAATCCGTATTTGCA (site ACGCACGCTTG) | 2.71 |
| ACGCCTACATGGACCGGTTTTCCCGGTAATCCGTATTTGAG (site ACGCCTACTCT) | 0.69 |
| ACGCGCACATGGACCGGTTTTCCCGGTAATCCGTATTTGTT (site ACGCGCACTAA) | 1.61 |
| ACGCGTCCATGGACCGGTTTTCCCGGTAATCCGTATTTGAC (site ACGCGTCCTGT) | 1.55 |
| ACGGAACCATGGACCGGTTTTCCCGGTAATCCGTATTTGAG (site ACGGAACCTCT) | 0 |
| ACGGAATCATGGACCGGTTTTCCCGGTAATCCGTATTTGTC (site ACGGAATCTGA) | 1.95 |
| ACGGATTCATGGACCGGTTTTCCCGGTAATCCGTATTTGCG (site ACGGATTCTCG) | 2.66 |
| ACGTAGACATGGACCGGTTTTCCCGGTAATCCGTATTTGGG (site ACATAGACTCC) | 0.351 |
| ACGTAGACATGGACCGGTTTTCCCGGTAATCCGTATTTGGG (site ACCTAGACTCC) | 0.0219 |
| ACGTAGACATGGACCGGTTTTCCCGGTAATCCGTATTTGGG (site ACGTAGACTCC) | 0.4 |
| ACGTAGACATGGACCGGTTTTCCCGGTAATCCGTATTTGGG (site ACTTAGACTCC) | 0.0197 |
| ACGTCTACATGGACCGGTTTTCCCGGTAATCCGTATTTGTG (site ACATCTACTCA) | 0.796 |
| ACGTCTACATGGACCGGTTTTCCCGGTAATCCGTATTTGTG (site ACCTCTACTCA) | 0.39 |
| ACGTCTACATGGACCGGTTTTCCCGGTAATCCGTATTTGTG (site ACGTCTACTCA) | 0.512 |
| ACGTCTACATGGACCGGTTTTCCCGGTAATCCGTATTTGTG (site ACTTCTACTCA) | 0.0124 |
| ACGTCTGCATGGACCGGTTTTCCCGGTAATCCGTATTTGCT (site ACGTCTGCTAG) | 1.98 |
| ACTAACCCATGGACCGGTTTTCCCGGTAATCCGTATTTGGC (site ACTAACCCTGC) | 0 |
| ACTAATGCATGGACCGGTTTTCCCGGTAATCCGTATTTGGT (site ACTAATGCTAC) | 1.88 |

| Sequence | recombinant UMI read abundance (log10) |
| --- | --- |
| ACTAATGCATGGACCGGTTTTCCCGGTAATCCGTATTTGGT (site ACTACTGCTAC) | 0.116 |
| ACTAATGCATGGACCGGTTTTCCCGGTAATCCGTATTTGGT (site ACTAGTGCTAC) | 0.00699 |
| ACTAATGCATGGACCGGTTTTCCCGGTAATCCGTATTTGGT (site ACTATTGCTAC) | 0.568 |
| ACTACAACATGGACCGGTTTTCCCGGTAATCCGTATTTGAG (site ACTAAAACTCT) | 0.00762 |
| ACTACAACATGGACCGGTTTTCCCGGTAATCCGTATTTGAG (site ACTACAACTCT) | 1.22 |
| ACTACAACATGGACCGGTTTTCCCGGTAATCCGTATTTGAG (site ACTAGAACTCT) | 0.216 |
| ACTACAACATGGACCGGTTTTCCCGGTAATCCGTATTTGAG (site ACTATAACTCT) | 0.494 |
| ACTAGAACATGGACCGGTTTTCCCGGTAATCCGTATTTGAA (site ACTAGAACTAT) | 0 |
| ACTAGAACATGGACCGGTTTTCCCGGTAATCCGTATTTGAA (site ACTAGAACTCT) | 0 |
| ACTAGAACATGGACCGGTTTTCCCGGTAATCCGTATTTGAA (site ACTAGAACTGT) | 0 |
| ACTAGAACATGGACCGGTTTTCCCGGTAATCCGTATTTGAA (site ACTAGAACTTT) | 1.45 |
| ACTAGAACATGGACCGGTTTTCCCGGTAATCCGTATTTGAC (site ACTAGAACTAT) | 0.00676 |
| ACTAGAACATGGACCGGTTTTCCCGGTAATCCGTATTTGAC (site ACTAGAACTCT) | 0.0218 |
| ACTAGAACATGGACCGGTTTTCCCGGTAATCCGTATTTGAC (site ACTAGAACTGT) | 2.13 |
| ACTAGAACATGGACCGGTTTTCCCGGTAATCCGTATTTGAC (site ACTAGAACTTT) | 0.322 |
| ACTAGAACATGGACCGGTTTTCCCGGTAATCCGTATTTGAT (site ACTAGAACTAT) | 1.24 |
| ACTAGAACATGGACCGGTTTTCCCGGTAATCCGTATTTGAT (site ACTAGAACTCT) | 0.0111 |
| ACTAGAACATGGACCGGTTTTCCCGGTAATCCGTATTTGAT (site ACTAGAACTGT) | 0 |
| ACTAGAACATGGACCGGTTTTCCCGGTAATCCGTATTTGAT (site ACTAGAACTTT) | 0.0117 |
| ACTAGATCATGGACCGGTTTTCCCGGTAATCCGTATTTGAG (site ACTAGAACTCT) | 0.00628 |
| ACTAGATCATGGACCGGTTTTCCCGGTAATCCGTATTTGAG (site ACTAGACCTCT) | 0.0156 |
| ACTAGATCATGGACCGGTTTTCCCGGTAATCCGTATTTGAG (site ACTAGAGCTCT) | 0.00838 |

| Sequence | recombinant UMI read abundance (log10) |
| --- | --- |
| ACTAGATCATGGACCGGTTTTCCCGGTAATCCGTATTTGAG (site ACTAGATCTCT) | 2.52 |
| ACTAGTACATGGACCGGTTTTCCCGGTAATCCGTATTTGAG (site ACTAGAACTCT) | 0.692 |
| ACTAGTACATGGACCGGTTTTCCCGGTAATCCGTATTTGAG (site ACTAGCACTCT) | 0.0245 |
| ACTAGTACATGGACCGGTTTTCCCGGTAATCCGTATTTGAG (site ACTAGGACTCT) | 0.0174 |
| ACTAGTACATGGACCGGTTTTCCCGGTAATCCGTATTTGAG (site ACTAGTACTCT) | 1.35 |
| ACTAGTGCATGGACCGGTTTTCCCGGTAATCCGTATTTGGG (site ACTAGTGCTAC) | 0.0186 |
| ACTAGTGCATGGACCGGTTTTCCCGGTAATCCGTATTTGGG (site ACTAGTGCTCC) | 0.376 |
| ACTAGTGCATGGACCGGTTTTCCCGGTAATCCGTATTTGGG (site ACTAGTGCTGC) | 0 |
| ACTAGTGCATGGACCGGTTTTCCCGGTAATCCGTATTTGGG (site ACTAGTGCTTC) | 0.021 |
| ACTAGTGCATGGACCGGTTTTCCCGGTAATCCGTATTTGTT (site ACTAGTGCTAA) | 1.35 |
| ACTAGTGCATGGACCGGTTTTCCCGGTAATCCGTATTTGTT (site ACTAGTGCTAC) | 0.00478 |
| ACTAGTGCATGGACCGGTTTTCCCGGTAATCCGTATTTGTT (site ACTAGTGCTAG) | 1.16 |
| ACTAGTGCATGGACCGGTTTTCCCGGTAATCCGTATTTGTT (site ACTAGTGCTAT) | 0.242 |
| ACTATAACATGGACCGGTTTTCCCGGTAATCCGTATTTGAG (site ACTAAAACTCT) | 0.00383 |
| ACTATAACATGGACCGGTTTTCCCGGTAATCCGTATTTGAG (site ACTACAACTCT) | 0.348 |
| ACTATAACATGGACCGGTTTTCCCGGTAATCCGTATTTGAG (site ACTAGAACTCT) | 0.395 |
| ACTATAACATGGACCGGTTTTCCCGGTAATCCGTATTTGAG (site ACTATAACTCT) | 1.72 |
| ACTATACCATGGACCGGTTTTCCCGGTAATCCGTATTTGTA (site ACTATACCTTA) | 0.0158 |
| ACTATTGCATGGACCGGTTTTCCCGGTAATCCGTATTTGGT (site ACTAATGCTAC) | 0.108 |
| ACTATTGCATGGACCGGTTTTCCCGGTAATCCGTATTTGGT (site ACTACTGCTAC) | 0.0131 |
| ACTATTGCATGGACCGGTTTTCCCGGTAATCCGTATTTGGT (site ACTAGTGCTAC) | 0.023 |
